Earlier results as cited in patent US5096924A, “Anticancer antibiotic MI43-37F11 substance” (501 Azidan Hojin Biseibutsu Kagaku Kenkyu Kai, priority 1989, dated 1992).

System: cyclic adenosine monophosphate (CAMP) phosphodiesterase
Conditions: disclosed in Japanese Kokai No. 71076/78; cited from earlier work

Row | Structure (SMILES) | inhibitory activity to cyclic adenosine monophosphate (CAMP) phosphodiesterase
1 | COc1cc2cc(CO)oc(=O)c2c(O)c1OC [3-hydroxymethyl-6,7-dimethoxy-8-hydroxyisocumarin] | inhibitory activity
2 | COc1c(O)cc2cc(CO)oc(=O)c2c1O [3-hydroxymethyl-6,8-dihydroxy-7-methoxyisocumarin] | inhibitory activity
